Key:
HSV-1 = HSV-1 Antiviral Assay (Vero cells, cell viability); format: cell-based; settings: Human alphaherpesvirus 1, 96 h; Vero cells, 80 TCID50 HSV-1, 4 days, cell viability; read-out: HSV-1 EC50
Procedure, shortened: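 Vero cells (2.5×10^3/well) received 8-point 3-fold compound dilutions in 2% FBS medium (0.5% DMSO), then 80 TCID50 HSV-1. After 4 days at 37 °C, cell viability was measured by CellTiter-Glo luminescence.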

HSV-2 G strain = assay: HSV-2 Antiviral Assay (Vero cells, cell viability); format: cell-based; settings: Human alphaherpesvirus 2, Vero, 120 h, Vero cells, 160 TCID50 HSV-2 G strain, 5 days, cell viability
Procedure, shortened: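 Antiviral readout is survival of infected Vero cells: after 5 days at 37 °C with 160 TCID50 HSV-2 G strain plus serially diluted compound (8 points, 3-fold, 0.5% DMSO), WST-8 was added for 3 h and absorbance measured at 460/620 nm. Cells seeded at 1.0×10^4 per well.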

SMILES	EC50 (HSV-1)	EC50 (HSV-2 G strain)
Cc1nc(N2CCCN(c3ccc(-c4cccc5c4OC(F)(F)O5)cc3)C2=O)sc1S(N)(=O)=O [Compound 80]	< 0.1 µM	< 0.1 µM
Cc1nc(N2CCCN(c3ccc(-c4cccc5ncccc45)cc3)C2=O)sc1S(N)(=O)=O [Compound 84]	0.1 to 1 µM	< 0.1 µM
Cc1nc(N2CCCN(c3ccc(-c4cccc5cnccc45)cc3)C2=O)sc1S(N)(=O)=O [Compound 85]	< 0.1 µM	< 0.1 µM
Cc1nc(N2CCCN(c3ccc(-c4nccc5ccccc45)cc3)C2=O)sc1S(N)(=O)=O [Compound 86]	0.1 to 1 µM	0.1 to 1 µM
Cc1nc(N2CCCN(c3ccc(-c4nc5ccccc5s4)cc3)C2=O)sc1S(N)(=O)=O [Compound 88]	0.1 to 1 µM	1 to 5 µM
Cc1nc(N2CCCN(c3ccc(-c4nc5ncccc5s4)cc3)C2=O)sc1S(N)(=O)=O [Compound 89]	1 to 5 µM	1 to 5 µM
Cc1nc(N2CCCN(c3ccc(-c4nc5c(F)cccc5s4)cc3)C2=O)sc1S(N)(=O)=O [Compound 90]	0.1 to 1 µM	0.1 to 1 µM
Cc1nc(N2CCCN(c3ccc(-c4ccccc4F)c(F)c3)C2=O)sc1S(N)(=O)=O [Compound 95]	0.1 to 1 µM	0.1 to 1 µM
Cc1nc(N2CCCN(c3ccc(-c4ccccc4F)cc3F)C2=O)sc1S(N)(=O)=O [Compound 96]	< 0.1 µM	< 0.1 µM
Cc1nc(N2CCCN(c3ccc(-c4ccccn4)c(F)c3)C2=O)sc1S(N)(=O)=O [Compound 97]	< 0.1 µM	< 0.1 µM
Cc1nc(N2CCCN(c3cc(F)c(-c4ccccn4)cc3F)C2=O)sc1S(N)(=O)=O [Compound 98]	< 0.1 µM	< 0.1 µM
Cc1nc(N2CCCN(c3cc(F)c(-c4ccccc4)cc3F)C2=O)sc1S(N)(=O)=O [Compound 99, 2-(3-(2,5-Difluoro-[1,1′-biphenyl]-4-yl)-2-oxotetrahydropyrimidin-1(2H)-yl)-4-methylthiazole-5-sulfonamide]	< 0.1 µM	< 0.1 µM
Cc1nc(N2CCCCN(c3ccc(-c4cc(F)ccc4F)cc3)C2=O)sc1S(N)(=O)=O [Compound 101, 2-(3-(2′,5′-Difluoro-[1,1′-biphenyl]-4-yl)-2-oxo-1,3-diazepan-1-yl)-4-methylthiazole-5-sulfonamide]	< 0.1 µM	< 0.1 µM
Cc1nc(N2CCCCN(c3ccc(-c4ccccc4F)cc3)C2=O)sc1S(N)(=O)=O [Compound 102]	< 0.1 µM	< 0.1 µM
Cc1nc(N2CCCCN(c3ccc(-c4ccccn4)cc3)C2=O)sc1S(N)(=O)=O [Compound 103]	< 0.1 µM	< 0.1 µM
Cc1nc(N2CC(C)(C)CN(c3ccc(-c4ccccc4F)cc3)C2=O)sc1S(N)(=O)=O [Compound 105]	< 0.1 µM	< 0.1 µM
Cc1nc(N2CC3(CC3)CN(c3ccc(-c4cc(F)ccc4F)cc3)C2=O)sc1S(N)(=O)=O [Compound 110, 2-(7-(2′,5′-Difluoro-[1,1′-biphenyl]-4-yl)-6-oxo-5,7-diazaspiro [2.5]octan-5-yl)-4-methylthiazole-5-sulfonamide]	< 0.1 µM	< 0.1 µM
Cc1nc(N2CC3(CC3)CN(c3ccc(-c4ccnn4C)cc3)C2=O)sc1S(N)(=O)=O [Compound 113, 4-Methyl-2-(7-(4-(1-methyl-1H-pyrazol-5-yl)phenyl)-6-oxo-5,7-diazaspiro[2.5]octan-5-yl)thiazole-5-sulfonamide]	1 to 5 µM	1 to 5 µM
CNS(=O)(=O)c1sc(N2CCCN(c3ccc(-c4cc(F)ccc4F)cc3)C2=O)nc1C [Compound 116, 2-(3-(2′,5′-Difluoro-[1,1′-biphenyl]-4-yl)-2-oxotetrahydropyrimidin-1(2H)-yl)-N,4-dimethylthiazole-5-sulfonamide]	< 0.1 µM	< 0.1 µM
Cc1nc(N2CCCN(c3ccc(-c4cc(F)ccc4F)cc3)C2=O)sc1S(=O)(=O)NC1CC1 [Compound 117]	< 0.1 µM	< 0.1 µM
CNS(=O)(=O)c1sc(N2CCCN(c3ccc(-c4ccccn4)cc3)C2=O)nc1C [Compound 118]	< 0.1 µM	< 0.1 µM
Cc1nc(N2CCCN(c3ccc(-c4ccccn4)cc3)C2=O)sc1S(=O)(=O)NC1CC1 [Compound 119]	< 0.1 µM	< 0.1 µM
CNS(=O)(=O)c1sc(N2CCCN(c3ccc(-c4ccccc4F)cc3)C2=O)nc1C [Compound 120]	< 0.1 µM	< 0.1 µM
CNS(=O)(=O)c1sc(N2CCCN(c3ccc(-c4cc(F)ccn4)cc3)C2=O)nc1C [Compound 121]	< 0.1 µM	< 0.1 µM
CNS(=O)(=O)c1sc(N2CCCN(c3ccc(-c4ncccc4F)cc3)C2=O)nc1C [Compound 122]	< 0.1 µM	< 0.1 µM
CNS(=O)(=O)c1sc(N2CCCN(c3ccc(-c4cccc(N)n4)cc3)C2=O)nc1C [Compound 123]	< 0.1 µM	< 0.1 µM
CNc1cccc(-c2ccc(N3CCCN(c4nc(C)c(S(=O)(=O)NC)s4)C3=O)cc2)n1 [Compound 124]	< 0.1 µM	< 0.1 µM

SMILES	EC50 (HSV-1)	EC50 (HSV-2 G strain)
CNS(=O)(=O)c1sc(N2CCCN(c3ccc(-c4nccs4)cc3)C2=O)nc1C [Compound 126]	< 0.1 µM	< 0.1 µM
Cc1nc(N2CCCN(c3ccc(-c4nccs4)cc3)C2=O)sc1S(=O)(=O)NC1CC1 [Compound 127]	< 0.1 µM	< 0.1 µM
CNS(=O)(=O)c1sc(N2CCCN(c3ccc(-c4ccccn4)c(F)c3)C2=O)nc1C [Compound 128]	< 0.1 µM	< 0.1 µM
CNS(=O)(=O)c1sc(N2CCCN(c3ccc(-c4ccccc4F)cc3F)C2=O)nc1C [Compound 130]	< 0.1 µM	< 0.1 µM
Cc1nc(N2CCCN(c3ccc(-c4ccccc4F)cc3F)C2=O)sc1S(=O)(=O)NC1CC1 [Compound 131]	0.1 to 1 µM	0.1 to 1 µM
CNS(=O)(=O)c1sc(N2CCCN(c3ccc(-c4ccccc4F)c(F)c3)C2=O)nc1C [Compound 132]	0.1 to 1 µM	< 0.1 µM
Cc1nc(N2CCCN(c3ccc(-c4ccccc4F)c(F)c3)C2=O)sc1S(=O)(=O)NC1CC1 [Compound 133]	< 0.1 µM	< 0.1 µM
CNS(=O)(=O)c1sc(N2CCCCN(c3ccc(-c4ccccn4)cc3)C2=O)nc1C [Compound 138]	< 0.1 µM	< 0.1 µM
Cc1nc(N2CC3(CC3)CN(c3ccc(-c4cc(F)ccc4F)cc3)C2=O)sc1S(C)(=N)=O (stereo not shown) [Compound 155]	< 0.1 µM	< 0.1 µM
Cc1nc(N2CCCN(c3ccc(-c4cc(F)ccc4F)cc3)C2=O)sc1S(C)(=O)=O [Compound 161]	< 0.1 µM	< 0.1 µM
Cc1nc(N2CCCN(c3ccc(-c4cc(F)ccc4F)cc3)C2=O)sc1S(=O)(=O)C1CC1 [Compound 163]	0.1 to 1 µM	0.1 to 1 µM
Cc1nc(N2CCCN(c3ccc(-c4ccccc4F)cc3)C2=O)sc1S(C)(=O)=O [Compound 164]	< 0.1 µM	< 0.1 µM
O=C1N(c2ccc(-c3cc(F)ccc3F)cc2)CCCN1c1ncc(S(=O)(=O)C2CC2)s1 [Compound 166]	0.1 to 1 µM	0.1 to 1 µM
NS(=O)(=O)c1sc(N2CCCN(c3ccc(-c4cc(F)ccc4F)cc3)C2=O)nc1Cl [Compound 171]	< 0.1 µM	< 0.1 µM
Cc1nc(N2CCCN(Cc3cccc(-c4cc(F)ccc4F)c3)C2=O)sc1S(N)(=O)=O [Compound 172, 2-(3-((2′,5′-Difluoro-[1,1′-biphenyl]-3-yl)methyl)-2-oxotetrahydropyrimidin-1(2H)-yl)-4-methylthiazole-5-sulfonamide]	< 0.1 µM	< 0.1 µM
Cc1nc(N2CCCN(Cc3cccc(-c4ccccc4)c3)C2=O)sc1S(N)(=O)=O [Compound 173]	< 0.1 µM	< 0.1 µM
Cc1nc(N2CCCN(C(C)c3cccc(-c4cc(F)ccc4F)c3)C2=O)sc1S(N)(=O)=O (stereo not shown) [Compound 174, 2-(3-(1-(2′,5′-Difluoro-[1,1′-biphenyl]-3-yl)ethyl)-2-oxotetrahydropyrimidin-1(2H)-yl)-4-methylthiazole-5-sulfonamide]	1 to 5 µM	1 to 5 µM
CNS(=O)(=O)c1sc(N2CCCN(Cc3cccc(-c4cc(F)ccc4F)c3)C2=O)nc1C [Compound 181]	< 0.1 µM	0.1 to 1 µM
CNS(=O)(=O)c1sc(N2CCCN(Cc3cccc(-c4ccccc4)c3)C2=O)nc1C [Compound 182]	< 0.1 µM	< 0.1 µM
Cc1nc(N2CCCN(c3ccc(-c4cc(F)ccc4Cl)cc3)C2=O)sc1S(N)(=O)=O [Compound 193]	< 0.1 µM	< 0.1 µM
Cc1nc(N2CCCN(c3ccc(-c4cc(F)ccc4C(F)F)cc3)C2=O)sc1S(N)(=O)=O [Compound 194]	< 0.1 µM	< 0.1 µM
COCc1ccc(F)cc1-c1ccc(N2CCCN(c3nc(C)c(S(N)(=O)=O)s3)C2=O)cc1 [Compound 209]	< 0.1 µM	< 0.1 µM
Cc1nc(N2CCCN(c3ccc(-c4cc(F)cc(-c5cnn(C)c5)c4F)cc3)C2=O)sc1S(N)(=O)=O [Compound 210]	< 0.1 µM	< 0.1 µM
Cc1nc(N2CCCN(c3ccc(-c4cc(F)cc(-c5cncs5)c4F)cc3)C2=O)sc1S(N)(=O)=O [Compound 211]	< 0.1 µM	< 0.1 µM
Cc1nc(N2CCCN(c3ccc(-c4cc(F)cc(Br)c4F)cc3)C2=O)sc1S(N)(=O)=O [Compound 212]	< 0.1 µM	< 0.1 µM
COc1c(F)cc(F)cc1-c1ccc(N2CCCN(c3nc(C)c(S(N)(=O)=O)s3)C2=O)cc1 [Compound 216]	< 0.1 µM	< 0.1 µM
